Laboratory results reported in US10798943B2, “Use of 6-anilino purine derivatives to improve heat stress tolerance of rice seedlings” (SYNGENTA PARTICIPATIONS AG, priority 2016, dated 2020).

Experiments:
Type in all cases: in vivo
[1] = test system: rice seedlings (hybrid rice variety ADT45); experiment: Phytotoxicity assessments at Ramapuram trial; conditions: for Greenness at 3.2 leaf / Seedling height at 3.2 leaf / Seedling injury / Time to 3.2 leaf / Uniformity of foliage growth at 3.2 leaf / Uniformity of greening at 3.2 leaf / Whiteness of root mat at 3.2 leaf: Ramapuram
Method: For each trial, hybrid rice variety ADT45 was sown in seedling boxes. A compound of formula (Ia) was applied by foliar spray in the form of an EC formulation, at various dose rates and seedling growth stages as shown in Table 1. [table] […] The trial was carried out between 5 Aug. 2015 and 9 Sep. 2015, with transplanting on 15 Aug. 2015. The mean maximum daily temperature during the trial period was 35.3° C., and mean minimum daily temperature during the trial period was 23.7° C. The mean temperature during the entire trial period was 30.2° C.

[2] = test system: rice seedlings (hybrid rice variety ADT45) under heat stress; experiment: Green seeker data, Ramapuram trial; design: key: percentage green area (NDVI), higher = better tolerance
Text: (§1) Trials were setup in two locations in India to test the effect of compounds of formula I on tolerance of rice seedlings to heat stress during transplantation.
(§2) For each trial, hybrid rice variety ADT45 was sown in seedling boxes. A compound of formula (Ia) was applied by foliar spray in the form of an EC formulation, at various dose rates and seedling growth stages as shown in Table 1.
(§3) Transplanting took place at the […] growth stage. Transplant shock was used as an indicator of tolerance to heat stress, and was measured via visual assessment of damage severity on a scale of 0% (no damage) to 100% (dead plant); observations such as yellowing and leaf tip burning are indicators of damage. Transplant shock was also assessed by measuring NVDI values using a Green Seeker™ crop sensor, which measures the percentage green area. A low transplant shock stress rating and high NVDI rating indicate improved tolerance to transplant shock stress.
(§4) The trial was carried out between 5 Aug. 2015 and 9 Sep. 2015, with transplanting on 15 Aug. 2015. The mean maximum daily temperature during the trial period was 35.3° C., and mean minimum daily temperature during the trial period was 23.7° C. The mean temperature during the entire trial period was 30.2° C.

[3] = test system: rice seedlings (hybrid rice variety ADT45) under heat stress; experiment: NVDI by Green Seeker crop sensor, Kumbakonam trial; design: key: NVDI as percentage green area (Green Seeker)
Text: as §1, §2, §3
as §4, with “7 May” for “5 Aug.”, “15 Jun.” for “9 Sep.”, “29 May” for “15 Aug.”, “37.3°” for “35.3°”, “24.9°” for “23.7°”, “31.1°” for “30.2°”

[4] = treatment 2: 5 g ai/ha, Pigeon-breast
[5] = treatment 3: 10 g ai/ha, Pigeon-breast
[6] = treatment 4: 20 g ai/ha, Pigeon-breast
[7] = treatment 6: 10 g ai/ha, 2-leaf
[8] = treatment 7: 20 g ai/ha, 2-leaf
[9] = treatment 9: 10 g ai/ha, 3-leaf
[10] = treatment 10: 20 g ai/ha, 3-leaf

COc1cccc(Nc2nc(F)nc3[nH]cnc23)c1 [Formula Ia]
2.5 unit: Greenness at 3.2 leaf [1, 8]
15: NVDI data (10 DAT) [3, 9] | NVDI data (10 DAT) [3, 10]
19: NVDI data (15 DAT) [3, 4] | NVDI data (15 DAT) [3, 5] | NVDI data (15 DAT) [3, 8] | NVDI data (15 DAT) ([3]; treatment 8: 5 g ai/ha, 3-leaf)
95%: Uniformity of greening at 3.2 leaf [1, 4] | Uniformity of greening at 3.2 leaf [1, 5] | Uniformity of greening at 3.2 leaf [1, 6] | Uniformity of greening at 3.2 leaf ([1]; treatment 5: 5 g ai/ha, 2-leaf) | Uniformity of greening at 3.2 leaf [1, 7] | Uniformity of greening at 3.2 leaf ([1]; treatment 8: 5 g ai/ha, 3-leaf) | Uniformity of greening at 3.2 leaf [1, 9] | Uniformity of greening at 3.2 leaf [1, 10]
18: NVDI data (15 DAT) [3, 9]
34: Green seeker data (15 DAT evening) ([2]; treatment 5: 5 g ai/ha, 2-leaf)
32: Green seeker data (15 DAT evening) [2, 7]
3 unit: Greenness at 3.2 leaf [1, 4] | Greenness at 3.2 leaf [1, 5] | Greenness at 3.2 leaf [1, 6] | Greenness at 3.2 leaf ([1]; treatment 5: 5 g ai/ha, 2-leaf) | Greenness at 3.2 leaf [1, 7] | Greenness at 3.2 leaf ([1]; treatment 8: 5 g ai/ha, 3-leaf) | Greenness at 3.2 leaf [1, 9] | Greenness at 3.2 leaf [1, 10]
14 cm: Seedling height at 3.2 leaf ([1]; treatment 8: 5 g ai/ha, 3-leaf)
6: NVDI data (10 DAT) [3, 5]
2%: Seedling injury [1, 7]
15 cm: Seedling height at 3.2 leaf ([1]; treatment 5: 5 g ai/ha, 2-leaf) | Seedling height at 3.2 leaf [1, 7] | Seedling height at 3.2 leaf [1, 8] | Seedling height at 3.2 leaf [1, 9] | Seedling height at 3.2 leaf [1, 10]
21: Green seeker data (15 DAT morning) [2, 6]
29: Green seeker data (15 DAT evening) [2, 5] | Green seeker data (15 DAT afternoon) [2, 7] | Green seeker data (15 DAT evening) [2, 10]
31: Green seeker data (15 DAT evening) [2, 4] | Green seeker data (15 DAT evening) [2, 9]
22: Green seeker data (15 DAT morning) [2, 4] | Green seeker data (15 DAT morning) [2, 8] | NVDI data (15 DAT) ([3]; treatment 5: 5 g ai/ha, 2-leaf)
11: NVDI data (10 DAT) [3, 8]
20: NVDI data (15 DAT) [3, 6] | NVDI data (15 DAT) [3, 7] | NVDI data (15 DAT) [3, 10]
90%: Uniformity of foliage growth at 3.2 leaf [1, 4] | Whiteness of root mat at 3.2 leaf [1, 4] | Uniformity of foliage growth at 3.2 leaf [1, 5] | Whiteness of root mat at 3.2 leaf [1, 5] | Uniformity of foliage growth at 3.2 leaf [1, 6] | Whiteness of root mat at 3.2 leaf [1, 6] | Uniformity of foliage growth at 3.2 leaf ([1]; treatment 5: 5 g ai/ha, 2-leaf) | Uniformity of foliage growth at 3.2 leaf [1, 7] | Uniformity of foliage growth at 3.2 leaf [1, 8] | Uniformity of foliage growth at 3.2 leaf ([1]; treatment 8: 5 g ai/ha, 3-leaf) | Whiteness of root mat at 3.2 leaf ([1]; treatment 8: 5 g ai/ha, 3-leaf) | Uniformity of foliage growth at 3.2 leaf [1, 9] | Whiteness of root mat at 3.2 leaf [1, 9] | Uniformity of foliage growth at 3.2 leaf [1, 10] | Whiteness of root mat at 3.2 leaf [1, 10]
12: NVDI data (10 DAT) [3, 4] | NVDI data (10 DAT) [3, 7]
13 cm: Seedling height at 3.2 leaf [1, 4] | Seedling height at 3.2 leaf [1, 5] | Seedling height at 3.2 leaf [1, 6]
10: NVDI data (10 DAT) [3, 6] | NVDI data (10 DAT) ([3]; treatment 8: 5 g ai/ha, 3-leaf)
13: NVDI data (10 DAT) ([3]; treatment 5: 5 g ai/ha, 2-leaf)
0%: Seedling injury [1, 4] | Seedling injury [1, 5] | Seedling injury [1, 6] | Seedling injury ([1]; treatment 5: 5 g ai/ha, 2-leaf) | Seedling injury ([1]; treatment 8: 5 g ai/ha, 3-leaf) | Seedling injury [1, 9] | Seedling injury [1, 10]
26: Green seeker data (15 DAT afternoon) [2, 8] | Green seeker data (15 DAT evening) [2, 8] | Green seeker data (15 DAT afternoon) ([2]; treatment 8: 5 g ai/ha, 3-leaf) | Green seeker data (15 DAT afternoon) [2, 9]
28: Green seeker data (15 DAT afternoon) [2, 4] | Green seeker data (15 DAT afternoon) [2, 6] | Green seeker data (15 DAT morning) [2, 7]
30: Green seeker data (15 DAT evening) ([2]; treatment 8: 5 g ai/ha, 3-leaf) | Green seeker data (15 DAT afternoon) [2, 10]
27: Green seeker data (15 DAT afternoon) ([2]; treatment 5: 5 g ai/ha, 2-leaf)
23: Green seeker data (15 DAT morning) ([2]; treatment 8: 5 g ai/ha, 3-leaf) | Green seeker data (15 DAT morning) [2, 9]
80%: Whiteness of root mat at 3.2 leaf [1, 8]
25: Green seeker data (15 DAT afternoon) [2, 5] | Green seeker data (15 DAT morning) [2, 5] | Green seeker data (15 DAT evening) [2, 6] | Green seeker data (15 DAT morning) ([2]; treatment 5: 5 g ai/ha, 2-leaf) | Green seeker data (15 DAT morning) [2, 10]
85%: Whiteness of root mat at 3.2 leaf ([1]; treatment 5: 5 g ai/ha, 2-leaf) | Whiteness of root mat at 3.2 leaf [1, 7] | Uniformity of greening at 3.2 leaf [1, 8]
5%: Seedling injury [1, 8]
did not cause any phytotoxic effects: Phytotoxic effects to the rice seedlings (summary) ([1]; Ramapuram trial, some marginal effects at the highest dose rate)
13 days: Time to 3.2 leaf ([1]; treatment 5: 5 g ai/ha, 2-leaf) | Time to 3.2 leaf [1, 7] | Time to 3.2 leaf [1, 8] | Time to 3.2 leaf ([1]; treatment 8: 5 g ai/ha, 3-leaf) | Time to 3.2 leaf [1, 9] | Time to 3.2 leaf [1, 10]
14 days: Time to 3.2 leaf [1, 4] | Time to 3.2 leaf [1, 5] | Time to 3.2 leaf [1, 6]
